The source of these data is ChEMBL document CHEMBL1155868, “N-Benzyl-N-(pyrrolidin-3-yl)carboxamides as a new class of selective dual serotonin/noradrenaline reuptake inhibitors” (Bioorg Med Chem Lett, 2008).

A value given as a limit tells only on which side of the number the result lay.

Series [1] addresses Sodium-dependent serotonin transporter (Homo sapiens, UniProt P31645). The experiment in a line: Inhibition of [3H]5HT reuptake at human serotonin transporter expressed in HEK293 cells by scintillation counting. The series is classed as cell-based.
Series [2] addresses Sodium-dependent noradrenaline transporter (Homo sapiens, UniProt P23975).
Description: Inhibition of [3H]NA reuptake in human noradrenaline transporter expressed in HEK293 cells by scintillation counting
Series [3] deals with Sodium-dependent dopamine transporter (Homo sapiens, UniProt Q01959). Kind of series: Inhibition of [3H]DA reuptake at human dopamine transporter expressed in HEK293 cells by scintillation counting. The series is classed as cell-based.
Chain of Sodium-dependent dopamine transporter (Q01959 whole entry): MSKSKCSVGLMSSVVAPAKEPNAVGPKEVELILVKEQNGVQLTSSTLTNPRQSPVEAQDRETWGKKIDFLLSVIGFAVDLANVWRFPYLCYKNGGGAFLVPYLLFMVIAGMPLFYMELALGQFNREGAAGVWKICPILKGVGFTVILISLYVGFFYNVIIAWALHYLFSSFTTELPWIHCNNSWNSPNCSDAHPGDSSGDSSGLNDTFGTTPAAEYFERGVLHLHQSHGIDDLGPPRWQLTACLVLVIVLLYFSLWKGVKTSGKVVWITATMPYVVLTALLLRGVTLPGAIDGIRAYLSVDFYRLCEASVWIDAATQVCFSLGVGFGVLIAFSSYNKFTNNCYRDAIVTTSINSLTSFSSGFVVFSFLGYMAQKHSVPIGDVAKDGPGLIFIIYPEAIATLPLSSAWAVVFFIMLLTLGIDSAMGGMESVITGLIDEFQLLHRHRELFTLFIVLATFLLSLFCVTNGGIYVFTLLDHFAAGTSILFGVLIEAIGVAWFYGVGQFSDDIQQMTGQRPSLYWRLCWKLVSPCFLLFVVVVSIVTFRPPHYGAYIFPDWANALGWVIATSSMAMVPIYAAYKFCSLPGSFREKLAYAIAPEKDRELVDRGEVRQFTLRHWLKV
Series [4] is described as follows: Distribution coefficient, log D at pH 7.4. Format: physicochemical. The conditions noted are these: octanol/water.
Series [5] in a line: Metabolic stability assessed as half life in human liver microsomes. The series is classed as ADME, Microsome. A general note: Liver microsomes are a subcellular fraction often used to study metabolism.
The target in another series is Cytochrome P450 2D6 (Homo sapiens, UniProt P10635). Kind of series: Inhibition of CYP2D6. Format: ADME.
Chain of Cytochrome P450 2D6 (P10635 whole entry): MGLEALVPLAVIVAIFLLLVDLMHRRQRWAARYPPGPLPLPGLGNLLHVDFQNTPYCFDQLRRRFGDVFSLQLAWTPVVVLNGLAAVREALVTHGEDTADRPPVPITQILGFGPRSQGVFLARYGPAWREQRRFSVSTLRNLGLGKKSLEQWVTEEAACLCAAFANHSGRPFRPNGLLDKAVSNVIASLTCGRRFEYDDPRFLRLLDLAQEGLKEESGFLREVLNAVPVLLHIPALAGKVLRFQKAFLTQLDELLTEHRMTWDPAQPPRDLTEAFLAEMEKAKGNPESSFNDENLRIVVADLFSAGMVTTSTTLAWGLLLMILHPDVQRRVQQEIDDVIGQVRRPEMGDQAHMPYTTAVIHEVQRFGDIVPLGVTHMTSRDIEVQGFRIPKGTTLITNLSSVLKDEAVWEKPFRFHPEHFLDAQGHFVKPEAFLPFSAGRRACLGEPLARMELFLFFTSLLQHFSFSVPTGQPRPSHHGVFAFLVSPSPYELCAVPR
In series [6] the target is Voltage-gated inwardly rectifying potassium channel KCNH2 (Homo sapiens, UniProt Q12809). Kind of series: Inhibition of human ERG potassium channel.
Chain of Voltage-gated inwardly rectifying potassium channel KCNH2 (Q12809 whole entry): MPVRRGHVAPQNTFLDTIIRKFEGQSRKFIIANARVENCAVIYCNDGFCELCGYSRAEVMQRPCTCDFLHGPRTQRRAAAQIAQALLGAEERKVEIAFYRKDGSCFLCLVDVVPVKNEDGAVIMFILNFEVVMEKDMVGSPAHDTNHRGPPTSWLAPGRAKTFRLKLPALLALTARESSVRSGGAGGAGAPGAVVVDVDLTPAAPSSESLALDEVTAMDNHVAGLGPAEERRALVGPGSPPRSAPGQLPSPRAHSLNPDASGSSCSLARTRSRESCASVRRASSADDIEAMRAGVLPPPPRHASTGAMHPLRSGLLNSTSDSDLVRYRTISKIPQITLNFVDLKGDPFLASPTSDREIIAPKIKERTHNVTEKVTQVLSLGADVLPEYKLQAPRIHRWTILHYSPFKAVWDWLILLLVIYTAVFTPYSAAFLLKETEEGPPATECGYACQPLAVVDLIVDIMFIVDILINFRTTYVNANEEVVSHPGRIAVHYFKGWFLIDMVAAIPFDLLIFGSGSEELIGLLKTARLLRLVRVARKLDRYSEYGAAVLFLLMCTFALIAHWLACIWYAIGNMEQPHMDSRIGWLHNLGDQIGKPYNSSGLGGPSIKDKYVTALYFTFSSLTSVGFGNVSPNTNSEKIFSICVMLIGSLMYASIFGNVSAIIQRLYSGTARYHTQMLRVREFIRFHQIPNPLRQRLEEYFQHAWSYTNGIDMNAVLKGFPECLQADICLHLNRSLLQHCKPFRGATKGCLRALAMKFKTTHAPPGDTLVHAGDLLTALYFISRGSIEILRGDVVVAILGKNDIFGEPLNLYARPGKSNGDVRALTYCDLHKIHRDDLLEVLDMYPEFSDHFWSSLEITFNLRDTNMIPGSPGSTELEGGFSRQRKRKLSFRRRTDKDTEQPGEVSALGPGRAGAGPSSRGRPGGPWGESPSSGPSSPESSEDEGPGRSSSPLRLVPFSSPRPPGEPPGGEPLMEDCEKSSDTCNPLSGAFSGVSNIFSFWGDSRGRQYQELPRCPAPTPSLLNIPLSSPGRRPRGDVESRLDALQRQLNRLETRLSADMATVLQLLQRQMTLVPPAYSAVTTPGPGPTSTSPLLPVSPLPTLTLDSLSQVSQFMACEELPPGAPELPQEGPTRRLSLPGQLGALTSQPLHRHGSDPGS
A short description of another series: in vitro. The conditions noted are these: human, hepatocytes.
A short description of series [7]: Dissociation constant, pKa of the compound. The series is classed as physicochemical.
Another series deals with T1, Cytochrome P450 1A2 (Homo sapiens, UniProt P05177).
T1 sequence (P05177 whole entry): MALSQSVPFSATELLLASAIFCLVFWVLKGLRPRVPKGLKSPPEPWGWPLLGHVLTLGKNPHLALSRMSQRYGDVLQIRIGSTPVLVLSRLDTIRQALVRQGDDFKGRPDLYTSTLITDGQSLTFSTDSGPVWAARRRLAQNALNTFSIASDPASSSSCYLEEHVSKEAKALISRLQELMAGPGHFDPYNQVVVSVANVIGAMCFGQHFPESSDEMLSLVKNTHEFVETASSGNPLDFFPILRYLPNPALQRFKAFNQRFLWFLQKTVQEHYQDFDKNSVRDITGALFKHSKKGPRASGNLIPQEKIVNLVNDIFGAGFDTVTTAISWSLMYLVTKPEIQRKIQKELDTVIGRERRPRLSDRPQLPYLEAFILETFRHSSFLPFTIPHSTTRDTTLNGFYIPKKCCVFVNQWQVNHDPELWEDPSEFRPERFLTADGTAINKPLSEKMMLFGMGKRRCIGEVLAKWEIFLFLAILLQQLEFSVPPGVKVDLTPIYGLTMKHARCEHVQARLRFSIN
Kind of series: Inhibition of CYP1A2. Format: ADME.

The target in the next series is Cytochrome P450 2C9 (Homo sapiens, UniProt P11712). The experiment in a line: Inhibition of CYP2C9. Format: ADME.
Chain of Cytochrome P450 2C9 (P11712 whole entry): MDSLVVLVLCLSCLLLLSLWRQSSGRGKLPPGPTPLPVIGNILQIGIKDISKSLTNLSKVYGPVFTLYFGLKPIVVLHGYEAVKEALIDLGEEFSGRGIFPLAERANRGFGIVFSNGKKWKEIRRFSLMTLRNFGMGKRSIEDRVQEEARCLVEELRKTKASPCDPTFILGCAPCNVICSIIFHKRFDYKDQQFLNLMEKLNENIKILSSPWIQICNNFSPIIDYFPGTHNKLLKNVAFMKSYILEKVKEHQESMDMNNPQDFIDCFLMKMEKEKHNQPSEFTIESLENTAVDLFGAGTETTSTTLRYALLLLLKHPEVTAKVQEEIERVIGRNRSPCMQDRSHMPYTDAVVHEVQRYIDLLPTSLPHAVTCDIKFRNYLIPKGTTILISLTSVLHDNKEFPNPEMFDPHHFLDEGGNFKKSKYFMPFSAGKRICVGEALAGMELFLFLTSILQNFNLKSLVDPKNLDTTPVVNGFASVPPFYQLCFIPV
The target of the next series is Cytochrome P450 2C19 (Homo sapiens, UniProt P33261). Kind of series: Inhibition of CYP2C19. The series is classed as ADME.
Chain of Cytochrome P450 2C19 (P33261 whole entry): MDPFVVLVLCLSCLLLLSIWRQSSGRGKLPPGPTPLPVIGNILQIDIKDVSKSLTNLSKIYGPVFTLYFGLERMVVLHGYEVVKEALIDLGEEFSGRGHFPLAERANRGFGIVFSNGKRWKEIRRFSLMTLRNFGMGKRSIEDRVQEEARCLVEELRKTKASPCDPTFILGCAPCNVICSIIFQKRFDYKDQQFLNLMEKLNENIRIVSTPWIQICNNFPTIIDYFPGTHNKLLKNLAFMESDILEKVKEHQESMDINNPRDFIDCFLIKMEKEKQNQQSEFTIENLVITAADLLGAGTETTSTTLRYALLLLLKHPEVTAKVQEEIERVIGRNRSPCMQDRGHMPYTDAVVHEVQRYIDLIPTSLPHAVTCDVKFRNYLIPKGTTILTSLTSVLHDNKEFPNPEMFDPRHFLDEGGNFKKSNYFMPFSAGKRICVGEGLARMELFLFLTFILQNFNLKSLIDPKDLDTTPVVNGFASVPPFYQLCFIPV
The target of a further series is Cytochrome P450 3A4 (Homo sapiens, UniProt P08684). Kind of series: Inhibition of CYP3A4. Format: ADME.
Chain of Cytochrome P450 3A4 (P08684 whole entry): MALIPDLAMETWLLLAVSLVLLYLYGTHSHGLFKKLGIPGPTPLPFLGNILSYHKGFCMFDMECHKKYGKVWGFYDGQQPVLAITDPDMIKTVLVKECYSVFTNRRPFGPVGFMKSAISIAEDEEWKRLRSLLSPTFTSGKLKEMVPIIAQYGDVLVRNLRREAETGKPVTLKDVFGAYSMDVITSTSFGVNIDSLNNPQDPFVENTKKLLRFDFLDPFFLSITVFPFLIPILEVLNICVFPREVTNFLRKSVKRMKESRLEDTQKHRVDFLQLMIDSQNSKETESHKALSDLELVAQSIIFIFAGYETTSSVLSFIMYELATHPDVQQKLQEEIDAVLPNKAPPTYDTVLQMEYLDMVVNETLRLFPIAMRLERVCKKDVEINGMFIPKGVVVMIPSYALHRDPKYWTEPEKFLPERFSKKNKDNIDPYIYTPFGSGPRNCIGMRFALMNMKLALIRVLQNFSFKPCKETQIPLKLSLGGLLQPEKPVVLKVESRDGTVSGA
Series [8] in a line: Half life in dog at 0.01 mg/kg, iv. Further details: dose 0.01 mg/kg, route intravenous; call rule not given here. The series is classed as ADME, organism-based, Canis lupus familiaris. The conditions noted are these: in vivo.
Series [9] is described as follows: Clearance in dog at 0.01 mg/kg, iv. Format: ADME, organism-based, Canis lupus familiaris. Further details: dose 0.01 mg/kg, route intravenous. The conditions noted are these: in vivo.
Series [10] can be described thus: Volume of distribution in dog at 0.01 mg/kg, iv. The conditions noted are these: in vivo. Further details: dose 0.01 mg/kg, route intravenous. The series is classed as ADME, organism-based, Canis lupus familiaris.
Series [11] is described as follows: Half life in dog at 0.013 mg/kg, po. The series is classed as ADME, organism-based, Canis lupus familiaris. More on the design: dose 0.013 mg/kg, route oral. The conditions noted are these: in vivo.
Series [12] is described as follows: Bioavailability in dog at 0.013 mg/kg, po. Format: ADME, organism-based, Canis lupus familiaris. The conditions noted are these: in vivo.
Series [13] can be described thus: Metabolic stability assessed as half life in dog liver microsomes. Format: ADME, Canis lupus familiaris, Microsome.

Chain of Sodium-dependent noradrenaline transporter (P23975 whole entry): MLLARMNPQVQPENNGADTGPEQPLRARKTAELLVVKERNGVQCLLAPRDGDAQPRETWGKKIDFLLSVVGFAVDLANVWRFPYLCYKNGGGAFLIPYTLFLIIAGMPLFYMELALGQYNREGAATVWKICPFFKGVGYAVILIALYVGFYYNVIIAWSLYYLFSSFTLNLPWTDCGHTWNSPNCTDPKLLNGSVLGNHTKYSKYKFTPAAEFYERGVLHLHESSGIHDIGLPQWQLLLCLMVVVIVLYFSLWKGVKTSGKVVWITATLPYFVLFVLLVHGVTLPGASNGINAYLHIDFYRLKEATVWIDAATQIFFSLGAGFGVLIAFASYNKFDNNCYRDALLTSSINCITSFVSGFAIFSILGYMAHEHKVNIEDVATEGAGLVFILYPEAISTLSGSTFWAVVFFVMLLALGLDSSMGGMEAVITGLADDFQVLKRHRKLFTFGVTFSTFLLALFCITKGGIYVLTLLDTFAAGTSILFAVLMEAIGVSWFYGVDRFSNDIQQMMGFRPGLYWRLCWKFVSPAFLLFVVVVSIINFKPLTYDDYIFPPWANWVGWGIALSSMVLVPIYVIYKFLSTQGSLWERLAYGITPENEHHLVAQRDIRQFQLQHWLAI
Chain of Sodium-dependent serotonin transporter (P31645 whole entry): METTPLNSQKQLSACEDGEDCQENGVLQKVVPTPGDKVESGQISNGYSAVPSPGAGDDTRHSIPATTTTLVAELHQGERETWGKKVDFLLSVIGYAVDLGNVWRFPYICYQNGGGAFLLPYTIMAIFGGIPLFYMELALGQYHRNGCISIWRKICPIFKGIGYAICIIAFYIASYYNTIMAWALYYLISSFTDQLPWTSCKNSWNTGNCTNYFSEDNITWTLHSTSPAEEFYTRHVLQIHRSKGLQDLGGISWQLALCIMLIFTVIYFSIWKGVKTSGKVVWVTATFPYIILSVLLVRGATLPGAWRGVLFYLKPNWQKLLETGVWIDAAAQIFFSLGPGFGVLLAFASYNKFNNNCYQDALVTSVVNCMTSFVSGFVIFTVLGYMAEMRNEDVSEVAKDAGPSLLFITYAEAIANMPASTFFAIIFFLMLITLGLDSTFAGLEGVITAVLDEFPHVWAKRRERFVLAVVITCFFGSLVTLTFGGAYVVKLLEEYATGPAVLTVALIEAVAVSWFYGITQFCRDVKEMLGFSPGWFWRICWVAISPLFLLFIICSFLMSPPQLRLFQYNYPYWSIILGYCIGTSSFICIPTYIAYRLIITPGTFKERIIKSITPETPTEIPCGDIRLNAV
Description for in vitro: Intrinsic clearance in human hepatocytes assessed per million cells

A word on the IC50: it is the concentration at which inhibition is half-maximal. High values mean weaker potency in that assay, low ones greater potency in that assay. For `CCCCC(=O)N(Cc1ccc(Cl)cc1Cl)[C@H]1CCNC1`, the values for the concentration for half-maximal inhibition (IC50) in [1] and in [2] were 33 nM and 70 nM, respectively.

Regarding `CC(C)(C)C(=O)N(Cc1ccc(Cl)cc1Cl)[C@H]1CCNC1`, the half-inhibitory concentration (IC50) in series [1] was 41 nM; in [2] it was 92 nM.

As to `CC(C)(C)CC(=O)N(Cc1ccc(Cl)cc1Cl)[C@H]1CCNC1`, the values for the IC50 in series [1], in series [3] and in series [2] were 27 nM, 10200 nM and 39 nM, respectively.

Turning to `O=C(C1CC1)N(Cc1ccc(Cl)cc1Cl)[C@H]1CCNC1`, the IC50 turned out to be 38 nM in series [1] and 25 nM in series [2].

For `CC(C)C(=O)N(Cc1cccc(Cl)c1Cl)[C@@H]1CCNC1`, the IC50 in series [1] turned out to be 5 nM; in [3], 1120 nM.

Turning to `CC(C)C(=O)N(Cc1ccccc1-c1ccccc1)[C@H]1CCNC1`, the IC50 in series [1] is above 400 nM; in [2] it was 14 nM.

Broadly, the logD is lipophilicity at a set pH, counting ionised and neutral species. A high value points to a more lipophilic compound. A word on the half-life: it is how long it takes for the measured level to halve. The hepatocyte CLint is the rate of metabolic loss divided by the concentration. Low values mean greater metabolic stability, high ones faster metabolism. `CC(C)C(=O)N(Cc1ccc(Cl)cc1Cl)[C@H]1CCNC1`: the IC50 in series [1] was 13 nM; in [3], above 40000 nM; against Cytochrome P450 2D6, 21800 nM; in series [6], 40200 nM; in series [2], 28 nM. Besides, in series [4], the logD amounted to 0.8. In series [5], the half-life is above 2 h. The molecule further returned an intrinsic clearance (hepatocyte CLint) in the series “in vitro” of 4.8 µL/min/1e6 cells.

As to `CC(C)C(=O)N(Cc1ccc(F)cc1Cl)[C@H]1CCNC1`, the figures for the IC50 in [1] and in series [2] were 161 nM and 98 nM, respectively.

Turning to `CC(C)CC(=O)N(Cc1ccc(Cl)cc1Cl)[C@H]1CCNC1`, the concentration for half-maximal inhibition (IC50) in [1] turned out to be 93 nM; in series [2], 31 nM.

As for `CCCC(=O)N(Cc1ccc(Cl)cc1Cl)[C@H]1CCNC1`, the values for the half-inhibitory concentration (IC50) in series [1] and in series [2] were 72 nM and 31 nM, respectively.

Take `CCC(=O)N(Cc1ccc(Cl)cc1Cl)[C@H]1CCNC1`: the IC50 in series [1] amounted to 25 nM; in [2], 60 nM.

Take `CC(C)C(=O)N(Cc1ccc(F)cc1F)[C@H]1CCNC1`: the IC50 in series [1] and in [2] was above 400 nM in each case.

For `CC(C)C(=O)N(Cc1ccccc1Cl)[C@H]1CCNC1`, the IC50 in series [1] was found to be 91 nM; in series [2], 114 nM.

The pKa is the pH at which an ionisable group is half protonated. The low end stands for a group that gives up its proton readily, the high end for a group that holds its proton tightly. As a reminder, the clearance is a measure of how efficiently the substance is removed, as volume per time. Read a low clearance as inefficient removal. What is called Vd is the apparent volume that relates the amount in the body to the concentration in plasma or blood. A high value points to extensive tissue distribution. For orientation: bioavailability means dose-corrected exposure relative to a reference, in per cent. Regarding `CC(C)C(=O)N(Cc1cccc(Cl)c1Cl)[C@H]1CCNC1`, the IC50 stood at 1270 nM in [3], 27100 nM on Cytochrome P450 2D6, 24700 nM in series [6] and 17900 nM against Cytochrome P450 3A4. This molecule also yielded a log distribution coefficient (logD) in [4] of 0.8. Moreover, the pKa in series [7] was determined as 9.4. Further, the half-life in series [5] was above 2 h; in series [8], 5.7 h; in series [11] it was 5.7 h; in series [13], 0.583 h. Moreover, the Activity entry on Cytochrome P450 1A2, at Cytochrome P450 2C9 and at Cytochrome P450 2C19 was “Not Active” throughout. For the same molecule, in series [9], the clearance came out at 1.1 mL/min/kg. For the same molecule, in series [10], the distribution volume (Vd) came out at 0.5 L/kg. Moreover, the bioavailability in series [12] is 91%. For the same molecule, in “in vitro”, the hepatocyte CLint was 2.7 µL/min/1e6 cells.

Turning to `O=C(C1CCOCC1)N(Cc1cccc(Cl)c1Cl)[C@H]1CCNC1`, the figures for the 50% inhibitory concentration (IC50) in series [1] and in series [2] were 123 nM and 300 nM, respectively.

Regarding `CC(C)C(=O)N(Cc1ccc(Cl)c(Cl)c1Cl)[C@H]1CCNC1`, the half-inhibitory concentration (IC50) in [1] is 5 nM; in [3] it was 5870 nM; against Cytochrome P450 2D6, 17600 nM; in series [6], above 6870 nM; in series [2], 16 nM. Also, in [4], the logD was determined as 1.3. In addition, the half-life in series [5] was above 2 h. This molecule returned a hepatocyte CLint in the series “in vitro” of 8.8 µL/min/1e6 cells.

Consider `CC(C)C(=O)N(Cc1cc(Cl)cc(Cl)c1Cl)[C@H]1CCNC1`, for which the 50% inhibitory concentration (IC50) in series [1] is 44 nM; in series [3], 21600 nM; in series [2], 29 nM.

Take `CC(C)CC(=O)N(Cc1cccc(Cl)c1Cl)[C@H]1CCNC1`: the IC50 in series [1] was found to be 17 nM; in series [2], 62 nM.

Take `O=C(C1CCC1)N(Cc1ccc(Cl)cc1Cl)[C@H]1CCNC1`: the figures for the half-maximal inhibitory concentration (IC50) in series [1] and in series [2] were 41 nM and 64 nM, respectively.

`CC(C)C(=O)N(Cc1ccc(C(F)(F)F)cc1F)[C@H]1CCNC1`: the IC50 in [1] is 24 nM; in [2], above 400 nM.

Regarding `O=C(c1ccccc1)N(Cc1ccc(Cl)cc1Cl)[C@H]1CCNC1`, the half-inhibitory concentration (IC50) in [1] is 195 nM; in series [2], 94 nM.

On to `CC(C)(C)C(=O)N(Cc1cccc(Cl)c1Cl)[C@H]1CCNC1`, for which the IC50 in series [1] is 26 nM; in [2], above 322 nM.
